Starred links: 1 amine or outer side, 2 acyl side, 3 side chain; linkers in the order of their positions; H or OH if unused. Non-standard residues stand in square brackets, D forms with d. Residues, ends and D or L forms follow the SMILES beside them. X1 = CCCC1C[C@@H](C(=O)[*:2])N([*:1])C1; NMeNle = CCCC[C@H](NC)C(=O)O; Nle = CCCC[C@H](N)C(=O)O
What was measured:
[1] = target: T1, Cholecystokinin receptor type A (Homo sapiens, UniProt P32238); assay: Compound was tested for its binding affinity towards Cholecystokinin type A receptor in pancreatic membranes; assay type: cell membranes
T1 sequence (P32238 whole entry): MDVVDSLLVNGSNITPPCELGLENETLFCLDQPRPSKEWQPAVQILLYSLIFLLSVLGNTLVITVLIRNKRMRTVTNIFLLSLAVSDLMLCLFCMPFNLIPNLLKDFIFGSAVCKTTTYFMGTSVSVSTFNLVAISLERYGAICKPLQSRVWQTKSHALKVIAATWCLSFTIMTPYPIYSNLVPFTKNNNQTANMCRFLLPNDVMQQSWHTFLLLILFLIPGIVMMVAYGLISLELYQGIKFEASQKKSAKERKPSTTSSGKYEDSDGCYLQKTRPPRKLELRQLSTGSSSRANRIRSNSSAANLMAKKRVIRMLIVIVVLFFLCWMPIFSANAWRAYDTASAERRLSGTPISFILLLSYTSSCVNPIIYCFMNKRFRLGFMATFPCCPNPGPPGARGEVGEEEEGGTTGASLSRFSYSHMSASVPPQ

[2] = target: T2, Gastrin/cholecystokinin type B receptor (Homo sapiens, UniProt P32239); assay: Compound was tested for its binding affinity towards Cholecystokinin type B receptor in cortical membranes (CNS); assay type: cell membranes
T2 sequence (P32239 whole entry): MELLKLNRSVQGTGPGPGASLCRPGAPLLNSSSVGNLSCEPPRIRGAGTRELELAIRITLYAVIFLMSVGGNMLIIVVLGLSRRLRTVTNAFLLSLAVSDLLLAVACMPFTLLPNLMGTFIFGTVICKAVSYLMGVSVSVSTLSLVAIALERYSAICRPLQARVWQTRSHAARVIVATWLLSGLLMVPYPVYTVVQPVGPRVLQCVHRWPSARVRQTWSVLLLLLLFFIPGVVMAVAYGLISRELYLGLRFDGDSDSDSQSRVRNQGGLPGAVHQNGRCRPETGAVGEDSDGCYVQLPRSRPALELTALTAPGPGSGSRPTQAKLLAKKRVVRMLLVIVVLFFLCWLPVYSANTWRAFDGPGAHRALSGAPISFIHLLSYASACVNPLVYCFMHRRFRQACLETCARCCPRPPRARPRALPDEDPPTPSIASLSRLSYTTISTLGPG

[3] = target: T3, Cholecystokinin receptor type A (Homo sapiens) (UniProt P32238); assay: Ratio of binding affinity of Cholecystokinin type A receptor […]
T3 sequence (whole entry): T1 sequence (P32238 whole entry)

Row | Structure (SMILES) | IC50 [1] | IC50 [2] | Ratio [3]
1 | CCCCC(C(=O)OCc1ccccc1)n1nnnc1C(Cc1cn(C(=O)OCc2ccccc2)c2ccccc12)NC(=O)OCc1ccccc1 (stereo not drawn) | > 10000 nM | > 10000 nM | –
2 | CCCC[C@@H](C(=O)N[C@@H](CC(=O)O)[C@@H](Cc1ccccc1)C(N)=O)n1nnnc1[C@H](Cc1c[nH]c2ccccc12)NC(=O)CN | > 10000 nM | 4530 nM | > 1.9
3 | CCCC[C@@H](C(=O)N[C@@H](CC(=O)O)C(=O)N[C@@H](Cc1ccccc1)C(N)=O)N(C)C(=O)[C@H](Cc1c[nH]c2ccccc12)NC(=O)CN (H-GW[NMeNle]DF-NH2) | > 10000 nM | – | –
4 | CCCC[C@H](NC(=O)[C@H](Cc1c[nH]c2ccccc12)NC(=O)CN)C(=O)N[C@@H](CC(=O)O)C(=O)N[C@@H](Cc1ccccc1)C(N)=O (H-GW[Nle]DF-NH2) | 2180 nM | 169 nM | 12.9
5 | CCCC1C[C@@H](C(=O)N[C@@H](CC(=O)O)C(=O)N[C@@H](Cc2ccccc2)C(N)=O)N(C(=O)[C@H](Cc2c[nH]c3ccccc23)NC(=O)CN)C1 (stereo partly drawn) (H-GW[X1]DF-NH2) | 2700 nM | 1.9 nM | 1420
6 | CCCC[C@@H](C(=O)N[C@@H](CC(=O)OCc1ccccc1)[C@@H](Cc1ccccc1)C(N)=O)n1nnnc1[C@H](Cc1c[nH]c2ccccc12)NC(=O)CNC(=O)OC(C)(C)C (mixture of isomers) | 364 nM | 4250 nM | 0.09
7 | CCCC[C@@H](C(=O)N[C@@H](CC(=O)OCc1ccccc1)[C@@H](Cc1ccccc1)C(N)=O)n1nnnc1[C@H](Cc1c[nH]c2ccccc12)NC(=O)OC(C)(C)C (mixture of isomers) | 36.7 nM | 1880 nM | 0.02
